From patent publication EP2955182A1, “Pyridazinones for the treatment of cancer” (Max-Planck-Gesellschaft zur Förderung der Wissenschaften …, priority 2014, dated 2015)

Tests used:
[1] = tested on: BxPC-3; test: Real time cell analysis (RTCA) impedance proliferation measurement; format: cell-based; settings: administered 24 hours after seeding, monitored up to 100 hours
[2] = tested on: Panc-Tu-I; test: as above
[3] = biological target: PDEδ (Homo sapiens, UniProt O43924); test: Fluorescence polarization competition binding assay (displacement titration of labeled Atorvastatin-probe); settings: fluorescence polarization assay, displacement of fluorescent-tagged Atorvastatin analog from PDEδ; read-out: KD
Text: Example C.2: Displacement titrations of labeled Atorvastatin-probe for the determination of KD values:
Table 3. KD values for compounds of general formula (I) as determined by means of fluorescence polarization assay

| Kd [3] [µM] | Structure (SMILES) | further results |
| --- | --- | --- |
| – | Cc1ccc(-n2nc3c(=O)n(CCCC(=O)NCC(C)c4ccccc4)nc(C)c3c2C)cc1 (stereo not shown) [Compound 50, 4-(3,4-dimethyl-7-oxo-2-(p-tolyl)-2H-pyrazolo[3,4-d]pyridazin-6(7H)-yl)-N-(2-phenylpropyl)butanamide] | proliferation of K-Ras dependent cells [1]: inhibits the proliferation; cell death ([2]; Panc-Tu-I (Figure 6f), after a certain time): leading after a certain time to cell death; proliferation of K-Ras dependent cells ([2]; Panc-Tu-I, administered 24 hours after seeding, monitored up to 100 hours): inhibits the proliferation |
| 0.03 to 0.1 | COc1cccc(CNC(=O)CCCn2c(C)c3cnn(-c4ccccc4)c(=O)c3c2C)c1 [Compound 2, 4-(5,7-dimethyl-1-oxo-2-phenyl-1H-pyrrolo[3,4-d]pyridazin-6(2H)-yl)-N-(3-methoxybenzyl)butanamide] | – |
| < 0.03 | Cc1c2cnn(-c3ccccc3)c(=O)c2c(C)n1CCCC(=O)NC1CCCCC1 [Compound 11, N-cyclohexyl-4-(5,7-dimethyl-1-oxo-2-phenyl-1H-pyrrolo[3,4-d]pyridazin-6(2H)-yl)butanamide] | – |
| 0.1 to 1 | Cc1c2cnn(-c3ccccc3)c(=O)c2c(C)n1CCCC(=O)NCc1cccs1 [Compound 6, 4-(5,7-dimethyl-1-oxo-2-phenyl-1H-pyrrolo[3,4-d]pyridazin-6(2H)-yl)-N-(thiophen-2-ylmethyl)butanamide] | – |
| 0.1 to 1 | Cc1c2cnn(-c3ccccc3)c(=O)c2c(C)n1CCCC(=O)NCc1ccco1 [Compound 7, 4-(5,7-dimethyl-1-oxo-2-phenyl-1H-pyrrolo[3,4-d]pyridazin-6(2H)-yl)-N-(furan-2-ylmethyl)butanamide] | – |
| 0.1 to 1 | Cc1ccc(-n2nc3c(=O)n(CCCC(=O)NC4CC4)nc(C)c3c2C)cc1 [Compound 51, N-cyclopropyl-4-(3,4-dimethyl-7-oxo-2-(p-tolyl)-2H-pyrazolo[3,4-d]pyridazin-6(7H)-yl)butanamide] | – |
| 0.03 to 0.1 | Cc1nn(CCCC(=O)NCc2ccco2)c(=O)c2nn(-c3ccccc3)c(C)c12 [Compound 30, 4-(3,4-dimethyl-7-oxo-2-phenyl-2H-pyrazolo[3,4-d]pyridazin-6(7H)-yl)-N-(furan-2-ylmethyl)butanamide] | – |
| < 0.03 | Cc1ccc(-n2nc3c(=O)n(CCCC(=O)NCCc4ccccc4)nc(C)c3c2C)cc1 [Compound 46, 4-(3,4-dimethyl-7-oxo-2-(p-tolyl)-2H-pyrazolo[3,4-d]pyridazin-6(7H)-yl)-N-phenethylbutanamide] | – |
| < 0.03 | Cc1c2cnn(-c3ccccc3)c(=O)c2c(C)n1CCCC(=O)NC1CCCC(C)C1C (stereo not shown) [Compound 14, 4-(5,7-dimethyl-1-oxo-2-phenyl-1H-pyrrolo[3,4-d]pyridazin-6(2H)-yl)-N-(2,3-dimethylcyclohexyl)butanamide] | – |
| 0.03 to 0.1 | Cc1ccc(-n2nc3c(=O)n(CCCC(=O)NCc4ccco4)nc(C)c3c2C)cc1 [Compound 38, 4-(3,4-dimethyl-7-oxo-2-(p-tolyl)-2H-pyrazolo[3,4-d]pyridazin-6(7H)-yl)-N-(furan-2-ylmethyl)butanamide] | – |
| < 0.03 | Cc1ccc(-n2nc3c(=O)n(CCCC(=O)NC4CCC(C)CC4)nc(C)c3c2C)cc1 (stereo not shown) [Compound 53, 4-(3,4-dimethyl-7-oxo-2-(p-tolyl)-2H-pyrazolo[3,4-d]pyridazin-6(7H)-yl)-N-(4-methylcyclohexyl)butanamide] | – |
| < 0.03 | COc1ccc(CNC(=O)CCCn2nc(C)c3c(C)n(-c4ccc(C)cc4)nc3c2=O)cc1 [Compound 43, 4-(3,4-dimethyl-7-oxo-2-(p-tolyl)-2H-pyrazolo[3,4-d]pyridazin-6(7H)-yl)-N-(4-methoxybenzyl)butanamide] | – |
| 0.03 to 0.1 | Cc1ccc(-n2nc3c(=O)n(CCCC(=O)NCC4CCCO4)nc(C)c3c2C)cc1 (stereo not shown) [Compound 39, 4-(3,4-dimethyl-7-oxo-2-(p-tolyl)-2H-pyrazolo[3,4-d]pyridazin-6(7H)-yl)-N-((tetrahydrofuran-2-yl)methyl)butanamide] | – |
| 0.1 to 1 | Cc1c2cnn(-c3ccccc3)c(=O)c2c(C)n1CCCc1nnc(-c2ccc(F)cc2)o1 [Compound 27, 6-(3-(5-(4-fluorophenyl)-1,3,4-oxadiazol-2-yl)propyl)-5,7-dimethyl-2-phenyl-2,6-dihydro-1H-pyrrolo[3,4-d]pyridazin-1-one] | – |
| < 0.03 | Cc1ccc(CCNC(=O)CCCn2nc(C)c3c(C)n(-c4ccccc4)nc3c2=O)cc1 [Compound 37, 4-(3,4-dimethyl-7-oxo-2-phenyl-2H-pyrazolo[3,4-d]pyridazin-6(7H)-yl)-N-(4-methylphenethyl)butanamide] | – |
| < 0.03 | Cc1c2cnn(-c3ccccc3)c(=O)c2c(C)n1CCCC(=O)NC1CCC(C)CC1 (stereo not shown) [Compound 12, 4-(5,7-dimethyl-1-oxo-2-phenyl-1H-pyrrolo[3,4-d]pyridazin-6(2H)-yl)-N-(4-methylcyclohexyl)butanamide] | – |
| 0.1 to 1 | COc1ccccc1-c1nnc(CCCn2c(C)c3cnn(-c4ccccc4)c(=O)c3c2C)o1 [Compound 25, 6-(3-(5-(2-methoxyphenyl)-1,3,4-oxadiazol-2-yl)propyl)-5,7-dimethyl-2-phenyl-2,6-dihydro-1H-pyrrolo[3,4-d]pyridazin-1-one] | – |
